Measurements as given in patent US10294234B2, “HIV inhibitor compounds” (priority 2017, dated 2019).
pEC50: −log10 of the molar value. Where two headings read alike, the source gives them in different places.

Test system: HIV-1 (IIIB) in MT-4 cells
Experiment: MT-4 HIV assay
Assay type: cell-based
Conditions: Human immunodeficiency virus 1, MT4, 120 h
Method: Compounds were tested in a high-throughput 384-well assay format for their ability to inhibit the replication of HIV-1 (IIIB) in MT-4 cells. Compounds were serially diluted (1:3) in DMSO on 384-well polypropylene plates and further diluted 200-fold into complete RPMI media (10% FBS, 1% P/S) using the Biotek Micro Flow and Agilent ECHO acoustic dispenser. Each plate contained up to 8 test compounds, with negative (No Drug Control) and 5 uM AZT positive controls. MT-4 cells were pre-infected with 10 uL of either RPMI (mock-infected) or a fresh 1:250 dilution of an HIV-1 (IIIB) concentrated virus stock. Infected and uninfected MT-4 cells were further diluted in complete RPMI media and added to each plate using a Micro Flow dispenser. After 5 days incubation in a humidified and temperature controlled incubator (37° C.), Cell Titer Glo (Promega) was added to the assay plates to quantify the amount of luciferase.

[1] = HIV-1 (IIIB), MT-4 cells, 5 days, Cell Titer Glo, read-out: EC50

SMILES | pEC50 [1] | pEC50
COC(=O)N[C@H](C(=O)N[C@@H](Cc1ccc(C#Cc2ccc(N3CC4CC(C3)N4C3COC3)nc2)cc1)[C@@H](O)CN(Cc1c(F)cc(-c2ccc(N3CC4CC(C3)N4C3COC3)nc2)cc1F)NC(=O)[C@@H](NC(=O)OC)C(C)(C)C(F)(F)F)C(C)(C)C(F)(F)F [Example 38, Methyl ((5S,8S,9S,14S)-11-(2,6-difluoro-4-(6-(6-(oxetan-3-yl)-3,6-diazabicyclo[3.1.1]heptan-3-yl)pyridin-3-yl)benzyl)-16,16,16-trifluoro-9-hydroxy-15,15-dimethyl-8-(4-((6-(6-(oxetan-3-yl)-3,6-diazabicyclo[3.1.1]heptan-3-yl)pyridin-3-yl)ethynyl)benzyl)-3,6,13-trioxo-5-(1,1,1-trifluoro-2-methylpropan-2-yl)-2-oxa-4,7,11,12-tetraazahexadecan-14-yl)carbamate] | 8.21 | –
COC(=O)N[C@H](C(=O)N[C@@H](Cc1ccc(C#Cc2ccc(N3CC4CC(C3)N4C3COC3)nc2)cc1)[C@@H](O)CN(Cc1c(F)cc(-c2ccn(CC(F)F)n2)cc1F)NC(=O)[C@@H](NC(=O)OC)C(C)(C)C(F)(F)F)C(C)(C)C(F)(F)F [Example 41, Methyl ((5S,8S,9S,14S)-11-(4-(1-(2,2-difluoroethyl)-1H-pyrazol-3-yl)-2,6-difluorobenzyl)-16,16,16-trifluoro-9-hydroxy-15,15-dimethyl-8-(4-((6-(6-(oxetan-3-yl)-3,6-diazabicyclo[3.1.1]heptan-3-yl)pyridin-3-yl)ethynyl)benzyl)-3,6,13-trioxo-5-(1,1,1-trifluoro-2-methylpropan-2-yl)-2-oxa-4,7,11,12-tetraazahexadecan-14-yl)carbamate] | 8.45 | –
COC(=O)N[C@H](C(=O)N[C@@H](Cc1ccc(C#Cc2cnc(N3CC4CC(C3)N4C3COC3)nc2)cc1)[C@@H](O)CN(Cc1c(F)cc(-c2ccn(C(F)F)n2)cc1F)NC(=O)[C@@H](NC(=O)OC)C(C)(C)C(F)(F)F)C(C)(C)C(F)(F)F [Example 42, Methyl ((5S,8S,9S,14S)-11-(4-(1-(difluoromethyl)-1H-pyrazol-3-yl)-2,6-difluorobenzyl)-16,16,16-trifluoro-9-hydroxy-15,15-dimethyl-8-(4-((2-(6-(oxetan-3-yl)-3,6-diazabicyclo[3.1.1]heptan-3-yl)pyrimidin-5-yl)ethynyl)benzyl)-3,6,13-trioxo-5-(1,1,1-trifluoro-2-methylpropan-2-yl)-2-oxa-4,7,11,12-tetraazahexadecan-14-yl)carbamate] | 8.50 | –
COC(=O)N[C@H](C(=O)N[C@@H](Cc1ccc(C#Cc2ccc3nc(N4CC5CCC(C4)N5C4COC4)ccc3n2)cc1)[C@@H](O)CN(Cc1c(F)cc(-c2ccn(C(F)F)n2)cc1F)NC(=O)[C@@H](NC(=O)OC)C(C)(C)C(F)(F)F)C(C)(C)C(F)(F)F [Example 47, Methyl ((5S,8S,9S,14S)-11-(4-(1-(difluoromethyl)-1H-pyrazol-3-yl)-2,6-difluorobenzyl)-16,16,16-trifluoro-9-hydroxy-15,15-dimethyl-8-(4-((6-(8-(oxetan-3-yl)-3,8-diazabicyclo[3.2.1]octan-3-yl)-1,5-naphthyridin-2-yl)ethynyl)benzyl)-3,6,13-trioxo-5-(1,1,1-trifluoro-2-methylpropan-2-yl)-2-oxa-4,7,11,12-tetraazahexadecan-14-yl)carbamate] | 8.14 | –
COC(=O)N[C@H](C(=O)N[C@@H](Cc1ccc(C#Cc2nc(N3CC4CCC(C3)N4C3COC3)nc(N3C[C@H]4CC[C@@H](C3)N4C3COC3)n2)cc1)[C@@H](O)CN(Cc1c(F)cc(-c2ccn(C(F)F)n2)cc1F)NC(=O)[C@@H](NC(=O)OC)C(C)(C)C(F)(F)F)C(C)(C)C(F)(F)F [Example 49, Methyl ((5S,8S,9S,14S)-11-(4-(1-(difluoromethyl)-1H-pyrazol-3-yl)-2,6-difluorobenzyl)-16,16,16-trifluoro-9-hydroxy-15,15-dimethyl-8-(4-((4-((1R,5S)-8-(oxetan-3-yl)-3,8-diazabicyclo[3.2.1]octan-3-yl)-6-(8-(oxetan-3-yl)-3,8-diazabicyclo[3.2.1]octan-3-yl)-1,3,5-triazin-2-yl)ethynyl)benzyl)-3,6,13-trioxo-5-(1,1,1-trifluoro-2-methylpropan-2-yl)-2-oxa-4,7,11,12-tetraazahexadecan-14-yl)carbamate] | 7.43 | –
COC(=O)N[C@H](C(=O)N[C@@H](Cc1ccc(C#Cc2ccc(N3CC[N+]([O-])(C4COC4)CC3)nc2)cc1)[C@@H](O)CN(Cc1c(F)cc(-c2ccn(C(F)F)n2)cc1F)NC(=O)[C@@H](NC(=O)OC)C(C)(C)C(F)(F)F)C(C)(C)C(F)(F)F [Example 54, 4-(5-((4-((2S,3S)-4-(1-(4-(1-(difluoromethyl)-1H-pyrazol-3-yl)-2,6-difluorobenzyl)-2-((S)-4,4,4-trifluoro-2-((methoxycarbonyl)amino)-3,3-dimethylbutanoyl)hydrazinyl)-3-hydroxy-2-((S)-4,4,4-trifluoro-2-((methoxycarbonyl)amino)-3,3-dimethylbutanamido)butyl)phenyl)ethynyl)pyridin-2-yl)-1-(oxetan-3-yl)piperazine 1-oxide] | – | 8.07
COC(=O)N[C@H](C(=O)N[C@@H](Cc1ccc(C#Cc2ccc(N3CCN4CCOC[C@@H]4C3)nc2)cc1)[C@@H](O)CN(Cc1c(F)cc(-c2ccn(C(F)F)n2)cc1F)NC(=O)[C@@H](NC(=O)OC)C(C)(C)C(F)(F)F)C(C)(C)C(F)(F)F [Example 55, Methyl ((5S,8S,9S,14S)-11-(4-(1-(difluoromethyl)-1H-pyrazol-3-yl)-2,6-difluorobenzyl)-16,16,16-trifluoro-8-(4-((6-((S)-hexahydropyrazino[2,1-c][1,4]oxazin-8(1H)-yl)pyridin-3-yl)ethynyl)benzyl)-9-hydroxy-15,15-dimethyl-3,6,13-trioxo-5-(1,1,1-trifluoro-2-methylpropan-2-yl)-2-oxa-4,7,11,12-tetraazahexadecan-14-yl)carbamate] | 8.35 | –
COC(=O)N[C@H](C(=O)N[C@@H](Cc1ccc(C#Cc2ccc(N3CC4(C)CN(C5COC5)CC(C)(C3)C4=O)nc2)cc1)[C@@H](O)CN(Cc1c(F)cc(-c2cnn(C(F)F)c2)cc1F)NC(=O)[C@@H](NC(=O)OC)C(C)(C)C(F)(F)F)C(C)(C)C(F)(F)F [Example 62, Methyl ((5S,8S,9S,14S)-11-(4-(1-(difluoromethyl)-1H-pyrazol-4-yl)-2,6-difluorobenzyl)-8-(4-((6-(1,5-dimethyl-7-(oxetan-3-yl)-9-oxo-3,7-diazabicyclo[3.3.1]nonan-3-yl)pyridin-3-yl)ethynyl)benzyl)-16,16,16-trifluoro-9-hydroxy-15,15-dimethyl-3,6,13-trioxo-5-(1,1,1-trifluoro-2-methylpropan-2-yl)-2-oxa-4,7,11,12-tetraazahexadecan-14-yl)carbamate] | – | 8.05
COC(=O)N[C@H](C(=O)N[C@@H](Cc1ccc(C#Cc2ccc(N3CC4CCC(C3)N4C(=O)[C@@H]3CCCO3)nc2)cc1)[C@@H](O)CN(Cc1c(F)cc(-c2cnc(F)c(F)c2)cc1F)NC(=O)[C@@H](NC(=O)OC)C(C)(C)C)C(C)(C)C [Example 64, Methyl ((5S,8S,9S,14S)-5-(tert-butyl)-11-(4-(5,6-difluoropyridin-3-yl)-2,6-difluorobenzyl)-9-hydroxy-15,15-dimethyl-3,6,13-trioxo-8-(4-((6-(8-((S)-tetrahydrofuran-2-carbonyl)-3,8-diazabicyclo[3.2.1]octan-3-yl)pyridin-3-yl)ethynyl)benzyl)-2-oxa-4,7,11,12-tetraazahexadecan-14-yl)carbamate] | 8.27 | –
COC(=O)N[C@H](C(=O)N[C@@H](Cc1ccc(C#Cc2ccc(N3CC4CC(C3)CN(C3COC3)C4)nc2)cc1)[C@@H](O)CN(Cc1c(F)cc(-c2cnn(C(F)F)c2)cc1F)NC(=O)[C@@H](NC(=O)OC)C(C)(C)C(F)(F)F)C(C)(C)C(F)(F)F [Example 65, Methyl ((5S,8S,9S,14S)-11-(4-(1-(difluoromethyl)-1H-pyrazol-4-yl)-2,6-difluorobenzyl)-16,16,16-trifluoro-9-hydroxy-15,15-dimethyl-8-(4-((6-(7-(oxetan-3-yl)-3,7-diazabicyclo[3.3.1]nonan-3-yl)pyridin-3-yl)ethynyl)benzyl)-3,6,13-trioxo-5-(1,1,1-trifluoro-2-methylpropan-2-yl)-2-oxa-4,7,11,12-tetraazahexadecan-14-yl)carbamate] | – | 8.11
COC(=O)N[C@H](C(=O)N[C@@H](Cc1ccc(C#Cc2ccc(N3CC4CC(CN(c5ccccn5)C4)C3)nc2)cc1)[C@@H](O)CN(Cc1c(F)cc(-c2cnn(C(F)F)c2)cc1F)NC(=O)[C@@H](NC(=O)OC)C(C)(C)C(F)(F)F)C(C)(C)C(F)(F)F [Example 66, Methyl ((5S,8S,9S,14S)-11-(4-(1-(difluoromethyl)-1H-pyrazol-4-yl)-2,6-difluorobenzyl)-16,16,16-trifluoro-9-hydroxy-15,15-dimethyl-3,6,13-trioxo-8-(4-((6-(7-(pyridin-2-yl)-3,7-diazabicyclo[3.3.1]nonan-3-yl)pyridin-3-yl)ethynyl)benzyl)-5-(1,1,1-trifluoro-2-methylpropan-2-yl)-2-oxa-4,7,11,12-tetraazahexadecan-14-yl)carbamate] | 7.84 | –
